Reference: patent publication US20240382516A1, “PHARMACEUTICAL COMPOSITION FOR INCREASING MITOCHONDRIAL ACTIVITY AND/OR IMPROVING ADIPONECTIN PRODUCTION” (LOGICK ENERGETICS B.V., priority 2021, published 2024)

Legend:
Format in all cases: cell-based
[1] = tested on: Adiponectin gene expression in 3T3-L1 cells; assay: qPCR adiponectin gene expression in 3T3-L1 cells; conditions: 72 hours incubation, A 5.0 μg/ml, B 50 μM, C 1.0 μM
Description: • DMEM • 10% heat inactivated FCS • Compound A—5.0 μg/ml • Compound B-50 μM • Compound C-1.0 μM • Compound A+B • Compound A+C Protocol 3T3-L1 cell line • DMEM • 10% heat inactivated FCS • Compound A-[…] • Compound B-50 μM • Compound C-1.0 μM • Compound A+B • Compound A+C
In the of presence of: • 0.25 μM Dexamethasone & • 1 μg/ml Insulin • Therein A=pentosan, B=indomethacin, and C=pioglitazone.
Cells were stimulated at day 4 when they were sub confluent. After 72 hours of incubation, RNA was isolated from the cells.

[2] = tested on: Ppargc1a; assay: Ppargc1a log2Foldchanges, RNA isolated from stimulated KS-cells; conditions: for effect on changes in Ppargc1a activity (in words): 3 and 7 days stimulation
Excerpt: Therein A=pentosan, B-indomethacin, and C=pioglitazone. The RNA is isolated after 3 and 7 days stimulation in KS-cells, respectively. Ppargcla is considered particularly relevant for mitochondrial activity. A higher value represents a higher activity.

[3] = tested on: Cox family of sub-unit proteins of mitochondrial complex 4; assay: Gene expression Log2fold change, Cox family, KS483 cells; conditions: 7 days of stimulation
[4] = tested on: Nduf family of sub-unit proteins of mitochondrial complex 1; assay: Gene expression Log2fold change, Nduf family, KS483 cells; conditions: 7 days of stimulation

pentosan polysulphate [Compound A] was tested, and the “effect on Adiponectin gene expression (FIG. 1)” value [1] was “hardly any effect”, the “effect on changes in Ppargc1a activity (in words)” value [2] was “some effect” and the “Ppargc1a log2Foldchanges” value ([2]; 3 days stimulation) was 1.14. For the same compound, the “Ppargc1a log2Foldchanges” value ([2]; 7 days stimulation) was 1.3, the “COX4iL Log2fold change” value [3] was 0 and the “COX5a Log2fold change” value [3] was 0.31. The “COX5b Log2fold change” value [3] was 0, the “COX6b1 Log2fold change” value [3] was 0 and the “COX7a2L Log2fold change” value [3] was −0.42. For the same compound, the “COX8a Log2fold change” value [3] was 0, the “COX15 Log2fold change” value [3] was 0 and the “COX17 Log2fold change” value [3] was 0. The “COX19 Log2fold change” value [3] was 0, the “COX20 Log2fold change” value [3] was 0 and the “Nduf4 0 Log2fold change” value [4] was 0. The “Ndufa5 Log2fold change” value [4] was 0, the “Ndufa9 Log2fold change” value [4] was 0 and the “Ndufa10 Log2fold change” value [4] was 0. The “Ndufab1 Log2fold change” value [4] was 0, the “Ndufaf7 Log2fold change” value [4] was 0 and the “Ndufb3 Log2fold change” value [4] was 0. For the same compound, the “Ndufb4 Log2fold change” value [4] was 0, the “Ndufb9 Log2fold change” value [4] was 0 and the “Ndufb10 Log2fold change” value [4] was 0. The “Ndufc1 Log2fold change” value [4] was 0, the “Ndufs10 Log2fold change” value [4] was 0 and the “Ndufs20 Log2fold change” value [4] was 0. For the same compound, the “Ndufv1 Log2fold change” value [4] was 0 and the “Ndufv3 Log2fold change” value [4] was 0.

With `CCc1ccc(CCOc2ccc(CC3SC(=O)NC3=O)cc2)nc1` (stereo not drawn) [Compound C, pioglitazone] the “COX4iL Log2fold change” value [3] was 0, the “COX5a Log2fold change” value [3] was 0 and the “COX5b Log2fold change” value [3] was 0. For the same compound, the “COX6b1 Log2fold change” value [3] was 0, the “COX7a2L Log2fold change” value [3] was 0 and the “COX8a Log2fold change” value [3] was 0. The “COX15 Log2fold change” value [3] was 0, the “COX17 Log2fold change” value [3] was 0 and the “COX19 Log2fold change” value [3] was 0. The “COX20 Log2fold change” value [3] was 0, the “Nduf4 0 Log2fold change” value [4] was 0 and the “Ndufa5 Log2fold change” value [4] was 0.57. For the same compound, the “Ndufa9 Log2fold change” value [4] was 0, the “Ndufa10 Log2fold change” value [4] was 0 and the “Ndufab1 Log2fold change” value [4] was 0. For the same compound, the “Ndufaf7 Log2fold change” value [4] was 0.35, the “Ndufb3 Log2fold change” value [4] was 0 and the “Ndufb4 Log2fold change” value [4] was 0. For the same compound, the “Ndufb9 Log2fold change” value [4] was 0, the “Ndufb10 Log2fold change” value [4] was 0 and the “Ndufc1 Log2fold change” value [4] was 0. For the same compound, the “Ndufs10 Log2fold change” value [4] was 0, the “Ndufs20 Log2fold change” value [4] was 0 and the “Ndufv1 Log2fold change” value [4] was 0. The “Ndufv3 Log2fold change” value [4] was 0.

`COc1ccc2c(c1)c(CC(=O)O)c(C)n2C(=O)c1ccc(Cl)cc1` [Compound B, indomethacin] was tested, and the “effect on Adiponectin gene expression (FIG. 1)” value [1] was “show adiponectin gene expression”, the “effect on changes in Ppargc1a activity (in words)” value [2] was “no measurable effect” and the “COX4iL Log2fold change” value [3] was 0. The “COX5a Log2fold change” value [3] was 0, the “COX5b Log2fold change” value [3] was 0 and the “COX6b1 Log2fold change” value [3] was 0. The “COX7a2L Log2fold change” value [3] was 0, the “COX8a Log2fold change” value [3] was 0 and the “COX15 Log2fold change” value [3] was 0. For the same compound, the “COX17 Log2fold change” value [3] was 0, the “COX19 Log2fold change” value [3] was 0 and the “COX20 Log2fold change” value [3] was 0. The “Nduf4 0 Log2fold change” value [4] was 0, the “Ndufa5 Log2fold change” value [4] was 0 and the “Ndufa9 Log2fold change” value [4] was 0. For the same compound, the “Ndufa10 Log2fold change” value [4] was 0, the “Ndufab1 Log2fold change” value [4] was 0 and the “Ndufaf7 Log2fold change” value [4] was 0. For the same compound, the “Ndufb3 Log2fold change” value [4] was 0, the “Ndufb4 Log2fold change” value [4] was 0 and the “Ndufb9 Log2fold change” value [4] was 0. The “Ndufb10 Log2fold change” value [4] was 0, the “Ndufc1 Log2fold change” value [4] was 0 and the “Ndufs10 Log2fold change” value [4] was 0. For the same compound, the “Ndufs20 Log2fold change” value [4] was 0, the “Ndufv1 Log2fold change” value [4] was 0 and the “Ndufv3 Log2fold change” value [4] was 0.
